Legend:
TGase2 [1] = molecular target: T1, TGase2 (Mus musculus, UniProt P21981); experiment: In-vivo TGase activity in retina of streptozotocin-diabetic mice; details: for increase of TGase activity in retinas of diabetic mice: intravitreal injection, 0.5 mM dopamine, 500 mM cysteamine; for hyperglycemia-induced TGase2 activation in diabetic retina (in-vivo TGase activity): diabetic mice, intravitreal 2 μl: 50 mM cystamine, 20 mM MDC, 1 μM C-peptide, 2 μM Trolox, 500 mM NAC, after 24 hrs, n=8
T1 construct: from tissue; host or cells: retina of streptozotocin-diabetic C57BL/6 mice
T1 sequence (P21981 1-686): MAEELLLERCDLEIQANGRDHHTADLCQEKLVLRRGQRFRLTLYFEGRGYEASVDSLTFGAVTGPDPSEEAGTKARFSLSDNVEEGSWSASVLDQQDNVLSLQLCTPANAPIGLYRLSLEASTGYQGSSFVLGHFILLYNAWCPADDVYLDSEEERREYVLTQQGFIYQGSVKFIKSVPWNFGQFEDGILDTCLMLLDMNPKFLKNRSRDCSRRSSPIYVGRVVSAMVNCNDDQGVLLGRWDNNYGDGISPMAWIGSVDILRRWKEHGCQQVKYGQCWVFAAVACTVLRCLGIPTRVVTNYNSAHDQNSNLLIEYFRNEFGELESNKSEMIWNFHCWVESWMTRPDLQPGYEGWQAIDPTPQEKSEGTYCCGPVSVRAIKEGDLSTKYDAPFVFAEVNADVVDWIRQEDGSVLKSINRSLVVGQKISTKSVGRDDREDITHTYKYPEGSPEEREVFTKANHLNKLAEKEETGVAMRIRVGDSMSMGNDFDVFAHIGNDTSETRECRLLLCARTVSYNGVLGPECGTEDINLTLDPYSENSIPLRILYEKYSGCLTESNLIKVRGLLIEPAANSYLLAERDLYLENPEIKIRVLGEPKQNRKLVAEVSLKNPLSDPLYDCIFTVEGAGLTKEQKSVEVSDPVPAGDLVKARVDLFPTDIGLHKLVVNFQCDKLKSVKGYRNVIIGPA
Protocol: Two weeks after streptozotocin injection, diabetic mice were intravitreally injected with 2 μl of TGase inhibitors (50 mM cystamine or 20 mM MDC), 1 μM C-peptide (American Peptide Company, Sunnyvale, Calif.), ROS scavengers (2 μM Trolox or 500 mM NAC), or 65 μM mouse TG2-specific siRNA (Dharmacon, Lafayette, Colo.) into one eye and an equal volume of PBS or mouse control siRNA (Dharmacon, Lafayette, Colo.) into the contralateral eye. Non-diabetic mice were also intravitreally injected with 2 μl of PBS or mouse control siRNA into the eyes. After 24 hrs for inhibitors or C-peptide or 48 hrs for mouse TGase2 siRNA, mice were subjected to measurement of in-vivo TGase activity and vascular leakage from the retina.
In vivo Tgase transamidating activity was determined in mouse retina using confocal microscopy (FIG. 5A). 24 hrs after intravitreal injection of TGase2 inhibitors and C-peptide or 48 h after the injection of mouse TGase2-specific siRNA, mice were deeply anaesthetized using 2.5% avertin and 48 μl of 100 mM BAPA was injected into the left ventricle. BAPA was allowed to circulate for 10 min and mice were sacrificed by cervical dislocation. Eyes were then enucleated and immediately fixed with 4% paraformaldehyde for 45 min. Retinas were dissected in the Maltese cross-configuration and permeabilized with 0.2% Triton X-100 in PBS for 30 min at RT. After incubation with the blocking solution for 30 min, retinas were treated with FITC-conjugated streptavidin (1:200, v/v) in the blocking solution for 1 hr at RT. The superficial vessels of stained retinas (n=8 per group) were observed using confocal microscopy and fluorescence intensities were analyzed using Fluoview software (FV-300). In-vivo TGase activities were quantitatively determined using fluorescence intensities in the retinas of normal and diabetic mice.
Six-week-old male C57BL/6 mice were obtained from KOATECH (Pyeongtaek, Korea). TGase2^−/− mice (C57BL/6) were prepared by disrupting exons 5 and 6 of TGase2 by homologous recombination, as previously described. Diabetic mice were generated by a single intraperitoneal injection of streptozotocin (150 mg/kg body weight, Sigma) freshly prepared in 100 mM citrate buffer (pH 4.5) as previously described. Mice with non-fasting blood glucose levels greater than 19 mM, polyuria and glucosuria were considered diabetic. Experiments were performed in strict accordance with the guidelines of the Institutional Animal Care and Use Ethics Committee of Kangwon National University.
To validate the in-vitro findings, the present inventors further investigated the role of TGase2 in hyperglycemia-induced vascular leakage in the retina of diabetic mice. For this study, the present inventors designed an in-vivo TGase activity assay using confocal microscopy in mouse retina (FIG. 5A). In this assay, BAPA, which is a TGase2 pseudo substrate, was systemically delivered into the blood circulatory system by injection into the left ventricles of mice, and biotinylated proteins in the retinas were probed with FITC-conjugated streptavidin.
(A) A schematic diagram for determining TGase2 activity in mouse retina. (B,C) Streptozotocin-induced diabetic mice were intravitreally injected with 2 μl cystamine (diabetic+Cys), MDC (diabetic+MDC), C-peptide (diabetic+C-pep), Trolox (diabetic+Trolox) or NAC (diabetic+NAC) into one eye and an equal volume of PBS into the contralateral eye (diabetic). Non-diabetic mice were also intravitreally injected with 2 μl PBS into both eyes (normal). TGase2 activities in retinas were visualized by confocal microscopy and quantitatively determined as described in Research Design and Methods (n=8 per group). (B) Representative TGase activity images in the retinas. […] Scale bar, […]. (C) In-vivo TGase activities were quantified by measuring the fluorescence intensity in retinas (***p<0.001). […]

TGase = molecular target: T2, TGase (Homo sapiens, UniProt P21980); experiment: VEGF-induced TGase activation in HUVECs; assay type: cell-based
T2 construct: endogenous in cells; host or cells: HUVECs (isolated in house)
T2 sequence (P21980 1-687): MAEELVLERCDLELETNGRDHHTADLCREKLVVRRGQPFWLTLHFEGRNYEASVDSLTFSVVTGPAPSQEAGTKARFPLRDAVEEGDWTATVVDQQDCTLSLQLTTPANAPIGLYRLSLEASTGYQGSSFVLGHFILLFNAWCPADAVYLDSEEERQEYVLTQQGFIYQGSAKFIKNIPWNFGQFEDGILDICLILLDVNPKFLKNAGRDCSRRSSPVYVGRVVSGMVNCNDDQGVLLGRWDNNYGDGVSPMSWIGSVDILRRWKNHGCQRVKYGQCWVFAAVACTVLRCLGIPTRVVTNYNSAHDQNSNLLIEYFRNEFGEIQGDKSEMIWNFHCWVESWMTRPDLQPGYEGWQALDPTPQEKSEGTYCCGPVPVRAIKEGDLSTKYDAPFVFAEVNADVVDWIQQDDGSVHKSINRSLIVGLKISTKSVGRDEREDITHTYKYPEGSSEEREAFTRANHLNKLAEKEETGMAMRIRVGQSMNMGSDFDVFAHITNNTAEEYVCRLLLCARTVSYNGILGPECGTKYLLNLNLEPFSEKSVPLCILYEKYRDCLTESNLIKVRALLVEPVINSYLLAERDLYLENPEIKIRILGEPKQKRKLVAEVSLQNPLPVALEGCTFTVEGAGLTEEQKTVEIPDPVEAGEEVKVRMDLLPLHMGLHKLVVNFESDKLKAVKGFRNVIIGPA
Protocol: Both respectively were grown on 2% gelatin-coated plates in a M199 medium supplemented with 20% fetal bovine serum (FBS), 3 ng/ml basic fibroblastic growth factor, 5 units/ml heparin, 100 units/ml penicillin, and 100 μg/ml streptomycin. For experiments, cells were incubated for 6 hrs in a low-serum medium supplemented with 1% FBS and antibiotics.
In-situ Tgase transamidating activity was determined via confocal microscopic assay according to a previously known procedure. In brief, cells were incubated with 1 mM 5-(biotinamido)pentylamine (BAPA) for 1 hr at 37° C., fixed with 3.7% formaldehyde in PBS for 30 min, and permeabilized with 0.2% Triton X-100 in PBS for 30 min. After incubation with a blocking solution of 2% BSA in 20 mM Tris (pH 7.6), 138 mM NaCl, and 0.1% Tween 20 for 30 min, cells were treated with Cy3-conjugated streptavidin (1:200, v/v) in the blocking solution for 1 hr. Single-cell fluorescence intensities of stained cells were determined using confocal microscopy for 10 randomly selected cells per test. TGase activities were determined by comparing average fluorescence intensities of treated cells with those of control cells (expressed as multiples thereof).

TGase2 [2] = molecular target: T3, TGase2 (Homo sapiens, UniProt P21980); details: protein chip-based, dose-dependent
T3 sequence (P21980 1-687): T2 sequence (P21980 1-687)

Row | increase of TGase activity in retinas of diabetic mice (TGase2 [1]) | VEGF-enhanced TGase activation (TGase) | TGase2 activity (TGase2 [2]) | hyperglycemia-induced TGase2 activation in diabetic retina (in-vivo TGase activity) (TGase2 [1]) | Compound
1 | inhibited | inhibited | inhibited | – | NCCc1ccc(O)c(O)c1 [dopamine]
2 | inhibited | inhibited | inhibited | – | NCCS [cysteamine]

More lines, now with the values behind:

Row | Compound | increase of TGase activity in retinas of diabetic mice (TGase2 [1]) | VEGF-enhanced TGase activation (TGase) | TGase2 activity (TGase2 [2]) | hyperglycemia-induced TGase2 activation in diabetic retina (in-vivo TGase activity) (TGase2 [1])
3 | CN(C)c1cccc2c(S(=O)(=O)NCCCCCN)cccc12 [MDC, monodansylcadaverine] | – | – | – | suppressed
4 | NCCSSCCN [cystamine] | – | – | – | suppressed
5 | Cc1c(C)c2c(c(C)c1O)CCC(C)(C(=O)O)O2 (stereo not drawn) [Trolox] | – | – | – | prevented

Source: US10155948B2, “Pharmaceutical composition for preventing or treating diabetic complications and screening method for preventive or therapeutic agent for diabetic complications” (KANGWON NATIONAL UNIVERSITY UNIVERSITY-INDUSTRY COOPERATION …, priority 2016, dated 2018)
